Target: Rho-associated protein kinase 2 (Homo sapiens, UniProt O75116)
Assay: Inhibition of ROCK2 (unknown origin) assessed as phosphorylation of MYPT1 using Tetramethylbenzidine as substrate in presence of ATP

Chain of Rho-associated protein kinase 2 (O75116 whole entry): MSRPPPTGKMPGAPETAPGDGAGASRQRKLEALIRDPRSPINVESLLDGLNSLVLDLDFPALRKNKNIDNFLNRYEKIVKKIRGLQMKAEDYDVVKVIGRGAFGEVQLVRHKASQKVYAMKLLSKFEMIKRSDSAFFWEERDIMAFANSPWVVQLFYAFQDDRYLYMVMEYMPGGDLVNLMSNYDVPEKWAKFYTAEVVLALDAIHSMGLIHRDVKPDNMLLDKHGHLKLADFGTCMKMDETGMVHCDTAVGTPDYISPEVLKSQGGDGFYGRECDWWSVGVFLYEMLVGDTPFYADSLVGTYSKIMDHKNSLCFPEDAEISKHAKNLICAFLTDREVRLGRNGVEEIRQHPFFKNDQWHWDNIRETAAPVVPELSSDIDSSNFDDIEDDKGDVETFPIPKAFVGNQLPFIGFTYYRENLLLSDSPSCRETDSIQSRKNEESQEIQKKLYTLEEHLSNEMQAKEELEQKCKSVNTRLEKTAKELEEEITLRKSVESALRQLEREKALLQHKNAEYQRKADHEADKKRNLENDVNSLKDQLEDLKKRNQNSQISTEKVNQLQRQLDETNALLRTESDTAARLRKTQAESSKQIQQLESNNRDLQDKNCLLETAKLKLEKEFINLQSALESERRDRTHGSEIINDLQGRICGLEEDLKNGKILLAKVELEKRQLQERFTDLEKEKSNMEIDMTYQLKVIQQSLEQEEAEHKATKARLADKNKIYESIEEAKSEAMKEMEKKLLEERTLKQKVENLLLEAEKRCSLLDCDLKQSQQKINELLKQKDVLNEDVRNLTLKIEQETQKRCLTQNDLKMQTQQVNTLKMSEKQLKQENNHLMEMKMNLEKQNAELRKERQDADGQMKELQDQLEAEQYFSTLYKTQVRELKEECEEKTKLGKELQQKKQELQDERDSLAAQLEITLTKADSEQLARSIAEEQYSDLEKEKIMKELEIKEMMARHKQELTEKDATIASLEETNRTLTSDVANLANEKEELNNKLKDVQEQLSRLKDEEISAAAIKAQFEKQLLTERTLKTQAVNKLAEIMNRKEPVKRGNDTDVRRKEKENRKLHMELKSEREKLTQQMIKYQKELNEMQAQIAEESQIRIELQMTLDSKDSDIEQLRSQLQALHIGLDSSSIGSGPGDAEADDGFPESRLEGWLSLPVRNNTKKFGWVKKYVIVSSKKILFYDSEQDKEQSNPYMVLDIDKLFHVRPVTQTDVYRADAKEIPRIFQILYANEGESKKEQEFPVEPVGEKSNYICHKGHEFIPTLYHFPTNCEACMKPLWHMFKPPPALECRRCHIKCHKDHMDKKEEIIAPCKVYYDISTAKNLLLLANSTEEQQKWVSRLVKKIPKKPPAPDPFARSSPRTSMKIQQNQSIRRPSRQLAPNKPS

| IC50 | SMILES |
| --- | --- |
| 9.01 nM | COC(=O)c1ccc(N(C)C(C(=O)c2ccccc2)c2ccccc2)cc1 (stereo not drawn) |
| 8.02 nM | CCC(O)CNCc1ccnc2ccc(OC)cc12 (stereo not drawn) |
| 8.4 nM | COCSC(C)CCSCCO (stereo not drawn) |
